Test: Metabolite analysis of plasma and brain tissue (SPE/HPLC)
Assay type: in vivo, rat
Settings: for parent compound as share of the radioactivity in brain: rat brain; for percentage of radioactivity associated with parent: rat plasma
Experimental: Sixteen adult male Sprague-Dawley rats (body weight 250-320 g: mean±SD=288±25 g) were used in 5 separate experiments. Each rat was injected with ˜13 MBq Compound 1, at a specific activity of […], via a previously catheterised tail vein. The associated stable compound was 0.5±0.2 nmol/kg. Discrete samples of arterial blood were collected from 9 of the rats via a previously catheterised tail artery.
Plasma samples were injected directly onto a solid phase extraction (SPE) column (C18), with di-ammonium hydrogen phosphate (0.1 M) mobile phase, and the retained radioactivity subsequently injected onto a reverse phase HPLC column (300×7.8 mm i.d., p-Bondapak C18) with a mobile phase of methanol:0.1 M ammonium formate, […]. The eluates were monitored for radioactivity and absorbance at 254 nm. Brain tissues were assayed using the same methodology, excepting that the samples were homogenised and de-proteinated prior to injection onto the HPLC column.

CSc1cccc(N([11CH3])C(=N)Nc2cc(SC)ccc2Cl)c1 [Compound 1, (N-(2-chloro-5-(methylthio)phenyl)-N′-(3-methylthio)phenyl)-N′-[N-methyl-^11C]-methylguanidine]
parent compound as share of the radioactivity in brain (20 minutes after i.v. injection): approximately 95% | parent compound as share of the radioactivity in brain (70 minutes after i.v. injection): ~90% | percentage of radioactivity associated with parent (10 min after i.v. injection): ~50% | percentage of radioactivity associated with parent (90 min after i.v. injection): ~5% | metabolism and clearance from the plasma (rat, i.v.): rapid metabolism and clearance

Source: patent US7432397B2, “Imaging compounds” (Hammersmith Imanet Ltd., priority 2002, dated 2008)
